Measured values as given in patent US20250243215A1, “INHIBITORS OF EPIDERMAL GROWTH FACTOR RECEPTOR” (National Health Research Institutes, priority 2024, published 2025).

Experiments:
[1] = test system: A431 (wild-type EGFR overexpressing) cells; assay: Cell proliferation assay (MTS), A431; assay type: cell-based; settings: Homo sapiens, A-431, 96 h exposure
Description: (§1) A431 (wild-type EGFR overexpressing) and H1975 (double-mutant overexpressing) cells were exposed to test compounds for 96 h and the cell proliferation was determined by the MTS method.

[2] = test system: H1975 (double-mutant overexpressing) cells; assay: Cell proliferation assay (MTS), H1975; assay type: cell-based; settings: Homo sapiens, NCI-H1975, 96 h exposure
Description: as §1

| Structure (SMILES) | IC50 [1] [nM] | IC50 [2] [nM] |
| --- | --- | --- |
| C=CC(=O)Nc1cc(-c2c(-c3ccccc3)oc3ncnc(NC4CCCC4)c23)ccc1N1CC[C@@H](N(C)C)C1 [Compound 28, N-{5-[4-(Cyclopentylamino)-6-phenylfuro[2,3-d]pyrimidin-5-yl]-2-[(3R)-3-(dimethylamino)pyrrolidin-1-yl]phenyl}prop-2-enamide] | > 5000 | 200 to 5000 |
| C=CC(=O)Nc1cc(-c2c(-c3ccccc3)oc3ncnc(NCCc4ccc(O)cc4)c23)ccc1N1CCN(C)CC1 [Compound 36, N-[5-(4-{[2-(4-Hydroxyphenyl)ethyl]amino}-6-phenylfuro[2,3-d]pyrimidin-5-yl)-2-(4-methylpiperazin-1-yl)phenyl]prop-2-enamide] | 200 to 5000 | 200 to 5000 |
| C=CC(=O)Nc1cc(-c2c(-c3ccccc3)oc3ncnc(NCCc4ccc(O)cc4)c23)ccc1N(C)CCN(C)C [Compound 37, N-[2-{[2-(Dimethylamino)ethyl](methyl)amino}-5-(4-{[2-(4-hydroxyphenyl)ethyl]amino}-6-phenylfuro[2,3-d]pyrimidin-5-yl)phenyl]prop-2-enamide] | 200 to 5000 | 200 to 5000 |
| C=CC(=O)Nc1cc(-c2c(-c3ccccc3)oc3ncnc(NCCc4ccc(O)cc4)c23)ccc1N(C)CCN1CCN(C)CC1 [Compound 40, N-[5-(4-{[2-(4-Hydroxyphenyl)ethyl]amino}-6-phenylfuro[2,3-d]pyrimidin-5-yl)-2-{methyl [2-(4-methylpiperazin-1-yl)ethyl]amino}phenyl]prop-2-enamide] | > 5000 | 200 to 5000 |
| C=CC(=O)Nc1cc(-c2c(-c3ccccc3)oc3ncnc(NCCc4ccc(S(N)(=O)=O)cc4)c23)ccc1N(C)CCN(C)C [Compound 41, N-(5-[4-({2-[4-(Aminosulfonyl)phenyl]ethyl}amino)-6-phenylfuro-[2,3-d]pyrimidin-5-yl]-2-{[2-(dimethylamino)ethyl](methyl)amino}phenyl)prop-2-enamide] | 200 to 5000 | < 200 |
| C=CC(=O)Nc1cc(-c2c(-c3ccc(F)cc3)oc3ncnc(NC4CCCC4)c23)ccc1N(C)CCN(C)C [Compound 42, N-(5-[4-(Cyclopentylamino)-6-(4-fluorophenyl)furo[2,3-d]pyrimi-din-5-yl]-2-{[2-(dimethylamino)ethyl](methyl)amino}phenyl)prop-2-enamide] | 200 to 5000 | < 200 |
| C=CC(=O)Nc1cc(-c2c(-c3ccccc3)oc3ncnc(Nc4ccccc4)c23)ccc1N(C)CCN(C)C [Compound 43, N-(2-{[2-(Dimethylamino)ethyl](methyl)amino}-5-[6-phenyl-4-(phenylamino)furo[2,3-d]pyrimidin-5-yl]phenyl)prop-2-enamide] | 200 to 5000 | < 200 |
| C=CC(=O)Nc1cc(-c2c(-c3ccccc3)oc3ncnc(N[C@H]4CC[C@@H](O)CC4)c23)ccc1N(C)CCN(C)C [Compound 52, N-(2-{[2-(Dimethylamino)ethyl](methyl)amino}-5-{4-[(4-hydroxy-cyclohexyl)amino]-6-phenylfuro[2,3-d]pyrimidin-5-yl}phenyl)prop-2-enamide] | 200 to 5000 | < 200 |
| C=CC(=O)Nc1cc(-c2c(-c3ccccc3)oc3ncnc(N[C@@H]4CCCC[C@@H]4O)c23)ccc1N(C)CCN(C)C [Compound 53, N-[2-{[2-(Dimethylamino)ethyl](methyl)amino}-5-(4-{[(1R,2S)-2-hydroxycyclohexyl]amino}-6-phenylfuro[2,3-d]pyrimidin-5-yl)phenyl]prop-2-enamide] | 200 to 5000 | < 200 |
| C=CC(=O)Nc1cc(-c2c(-c3ccccc3)oc3ncnc(N[C@H]4CC[C@H](O)CC4)c23)ccc1N(C)CCN(C)C [Compound 55, N-(2-{[2-(Dimethylamino)ethyl](methyl)amino}-5-{4-[(4-hydroxy-cyclohexyl)amino]-6-phenylfuro[2,3-d]pyrimidin-5-yl}phenyl)prop-2-enamide] | 200 to 5000 | < 200 |
| C=CC(=O)Nc1cccc(-c2c(-c3ccccc3)oc3ncnc(N4CCC4)c23)c1 [Compound 61, N-{3-[4-(Azetidin-1-yl)-6-phenylfuro[2,3-d]pyrimidin-5-yl]phenyl}prop-2-enamide] | 200 to 5000 | < 200 |
